Laboratory results taken from ChEMBL document CHEMBL2424658, “Design, synthesis, and evaluation of novel 1-methyl-3-substituted quinazoline-2,4-dione derivatives as antimicrobial agents” (2013).
Converted amounts (≈) assume the structure as drawn.

Experiments:
Type in all cases: functional
Pseudomonas aeruginosa = assay: Antibacterial activity against Pseudomonas aeruginosa CR 56 after overnight incubation by […] method
Cryptococcus neoformans = assay: Antifungal activity against Cryptococcus neoformans after overnight incubation by […] method
Aspergillus flavus = assay: Antifungal activity against Aspergillus flavus 3905 after overnight incubation by […] method
Candida albicans = assay: Antifungal activity against Candida albicans ATCC 76615 after overnight incubation by […] method
Candida = assay: Antifungal activity against Candida mycoderma after overnight incubation by […] method
Bacillus = assay: Antibacterial activity against Bacillus proteus after overnight incubation by […] method
Escherichia coli = assay: Antibacterial activity against Escherichia coli JM 109 after overnight incubation by […] method
Bacillus subtilis = assay: Antibacterial activity against Bacillus subtilis ATCC 6633 after overnight incubation by […] method
Staphylococcus aureus [1] = assay: Antibacterial activity against methicillin-resistant Staphylococcus aureus N315 after overnight incubation by […] method
Staphylococcus aureus [2] = assay: Antibacterial activity against Staphylococcus aureus ATCC 25923 after overnight incubation by […] method
Saccharomyces cerevisiae = assay: Antifungal activity against Saccharomyces cerevisiae CGMCC2.145 after overnight incubation by […] method

Structure (SMILES) | MIC (Pseudomonas aeruginosa) | MIC (Cryptococcus neoformans) | MIC (Aspergillus flavus) | MIC (Candida albicans) | MIC (Candida) | MIC (Bacillus) | MIC (Escherichia coli) | MIC (Bacillus subtilis) | MIC (Staphylococcus aureus [1]) | MIC (Staphylococcus aureus [2]) | MIC (Saccharomyces cerevisiae)
Cn1c(=O)n(CCOC(=O)CNC(=O)c2ccco2)c(=O)c2ccccc21 | 128 µg/mL (≈ 345 µM) | 128 µg/mL (≈ 345 µM) | 64 µg/mL (≈ 172 µM) | 32 µg/mL (≈ 86.2 µM) | 64 µg/mL (≈ 172 µM) | 128 µg/mL (≈ 345 µM) | 4 µg/mL (≈ 10.8 µM) | 4 µg/mL (≈ 10.8 µM) | > 512 µg/mL | 256 µg/mL (≈ 689 µM) | –
Cc1ccc(C(=O)NCC(=O)OCCn2c(=O)c3ccccc3n(C)c2=O)cc1 | 128 µg/mL (≈ 324 µM) | 16 µg/mL (≈ 40.5 µM) | 64 µg/mL (≈ 162 µM) | 32 µg/mL (≈ 80.9 µM) | 512 µg/mL (≈ 1290 µM) | 32 µg/mL (≈ 80.9 µM) | 512 µg/mL (≈ 1290 µM) | 64 µg/mL (≈ 162 µM) | 512 µg/mL (≈ 1290 µM) | 512 µg/mL (≈ 1290 µM) | –
COc1ccc(C(=O)NCC(=O)OCCn2c(=O)c3ccccc3n(C)c2=O)cc1 | 128 µg/mL (≈ 311 µM) | 32 µg/mL (≈ 77.8 µM) | 128 µg/mL (≈ 311 µM) | 32 µg/mL (≈ 77.8 µM) | 512 µg/mL (≈ 1240 µM) | 512 µg/mL (≈ 1240 µM) | 512 µg/mL (≈ 1240 µM) | 4 µg/mL (≈ 9.72 µM) | 256 µg/mL (≈ 622 µM) | 512 µg/mL (≈ 1240 µM) | –
Cn1c(=O)n(CCOC(=O)CNC(=O)c2ccc(Cl)cc2)c(=O)c2ccccc21 | 256 µg/mL (≈ 616 µM) | 32 µg/mL (≈ 77 µM) | 32 µg/mL (≈ 77 µM) | 64 µg/mL (≈ 154 µM) | 512 µg/mL (≈ 1230 µM) | 256 µg/mL (≈ 616 µM) | 256 µg/mL (≈ 616 µM) | 128 µg/mL (≈ 308 µM) | 512 µg/mL (≈ 1230 µM) | 128 µg/mL (≈ 308 µM) | –
Cn1c(=O)n(CCOC(=O)CNC(=O)/C=C\c2ccccc2)c(=O)c2ccccc21 | > 512 µg/mL | 8 µg/mL (≈ 19.6 µM) | 32 µg/mL (≈ 78.5 µM) | 512 µg/mL (≈ 1260 µM) | 512 µg/mL (≈ 1260 µM) | 256 µg/mL (≈ 628 µM) | 16 µg/mL (≈ 39.3 µM) | 4 µg/mL (≈ 9.82 µM) | 4 µg/mL (≈ 9.82 µM) | 128 µg/mL (≈ 314 µM) | –
NC(=O)OC[C@H](O)[C@@H](O)[C@H](N)C(=O)N[C@H](C(=O)O)[C@H]1O[C@@H](n2cc(C(=O)O)c(=O)[nH]c2=O)[C@H](O)[C@@H]1O | – | 0.0312 µg/mL (≈ 0.0599 µM) | 32 µg/mL (≈ 61.4 µM) | 32 µg/mL (≈ 61.4 µM) | 8 µg/mL (≈ 15.3 µM) | – | – | – | – | – | 16 µg/mL (≈ 30.7 µM)
OC(Cn1cncn1)(Cn1cncn1)c1ccc(F)cc1F [FLUCONAZOLE] | – | 0.0312 µg/mL (≈ 0.102 µM) | 64 µg/mL (≈ 209 µM) | 16 µg/mL (≈ 52.2 µM) | 8 µg/mL (≈ 26.1 µM) | – | – | – | – | – | > 512 µg/mL
Cc1ccccc1C(=O)NCC(=O)OCCn1c(=O)c2ccccc2n(C)c1=O | 256 µg/mL (≈ 647 µM) | 16 µg/mL (≈ 40.5 µM) | 128 µg/mL (≈ 324 µM) | 512 µg/mL (≈ 1290 µM) | 512 µg/mL (≈ 1290 µM) | 32 µg/mL (≈ 80.9 µM) | 32 µg/mL (≈ 80.9 µM) | 64 µg/mL (≈ 162 µM) | 32 µg/mL (≈ 80.9 µM) | 512 µg/mL (≈ 1290 µM) | –
Cn1c(=O)n(CCOC(=O)CNC(=O)c2ccc([N+](=O)[O-])cc2)c(=O)c2ccccc21 | 64 µg/mL (≈ 150 µM) | – | – | 512 µg/mL (≈ 1200 µM) | 64 µg/mL (≈ 150 µM) | 128 µg/mL (≈ 300 µM) | 128 µg/mL (≈ 300 µM) | 512 µg/mL (≈ 1200 µM) | 8 µg/mL (≈ 18.8 µM) | 256 µg/mL (≈ 600 µM) | –
Cn1c(=O)n(CCOC(=O)CNC(=O)c2ccccc2Cl)c(=O)c2ccccc21 | 128 µg/mL (≈ 308 µM) | 128 µg/mL (≈ 308 µM) | 128 µg/mL (≈ 308 µM) | 32 µg/mL (≈ 77 µM) | 64 µg/mL (≈ 154 µM) | 128 µg/mL (≈ 308 µM) | 512 µg/mL (≈ 1230 µM) | 64 µg/mL (≈ 154 µM) | > 512 µg/mL | 512 µg/mL (≈ 1230 µM) | –
CN[C@@H]1[C@H](O[C@H]2[C@H](O[C@H]3[C@H](O)[C@@H](O)[C@H](N=C(N)N)[C@@H](O)[C@@H]3N=C(N)N)O[C@@H](C)[C@]2(O)C=O)O[C@@H](CO)[C@H](O)[C@H]1O [STREPTOMYCIN] | 64 µg/mL (≈ 110 µM) | – | – | – | – | 16 µg/mL (≈ 27.5 µM) | 64 µg/mL (≈ 110 µM) | 32 µg/mL (≈ 55 µM) | > 512 µg/mL | 32 µg/mL (≈ 55 µM) | –
Cn1c(=O)n(CCOC(=O)CNC(=O)c2ccccc2)c(=O)c2ccccc21 | > 512 µg/mL | 32 µg/mL (≈ 83.9 µM) | 64 µg/mL (≈ 168 µM) | 512 µg/mL (≈ 1340 µM) | > 512 µg/mL | > 512 µg/mL | 128 µg/mL (≈ 336 µM) | 512 µg/mL (≈ 1340 µM) | > 512 µg/mL | 256 µg/mL (≈ 671 µM) | –
Cn1c(=O)n(CCOC(=O)CNC(=O)c2cccc(F)c2)c(=O)c2ccccc21 | 128 µg/mL (≈ 320 µM) | 256 µg/mL (≈ 641 µM) | 64 µg/mL (≈ 160 µM) | 16 µg/mL (≈ 40.1 µM) | 512 µg/mL (≈ 1280 µM) | 512 µg/mL (≈ 1280 µM) | 128 µg/mL (≈ 320 µM) | 256 µg/mL (≈ 641 µM) | 32 µg/mL (≈ 80.1 µM) | 128 µg/mL (≈ 320 µM) | –
Cn1c(=O)n(CCOC(=O)CNC(=O)c2ccc(F)cc2)c(=O)c2ccccc21 | 256 µg/mL (≈ 641 µM) | 16 µg/mL (≈ 40.1 µM) | 64 µg/mL (≈ 160 µM) | 32 µg/mL (≈ 80.1 µM) | 64 µg/mL (≈ 160 µM) | 512 µg/mL (≈ 1280 µM) | 64 µg/mL (≈ 160 µM) | 128 µg/mL (≈ 320 µM) | 4 µg/mL (≈ 10 µM) | 256 µg/mL (≈ 641 µM) | –
Cn1c(=O)n(CCOC(=O)CNC(=O)c2cccs2)c(=O)c2ccccc21 | 64 µg/mL (≈ 165 µM) | 256 µg/mL (≈ 661 µM) | 64 µg/mL (≈ 165 µM) | 512 µg/mL (≈ 1320 µM) | 512 µg/mL (≈ 1320 µM) | 64 µg/mL (≈ 165 µM) | 64 µg/mL (≈ 165 µM) | 32 µg/mL (≈ 82.6 µM) | 32 µg/mL (≈ 82.6 µM) | 512 µg/mL (≈ 1320 µM) | –
Cn1c(=O)n(CCOC(=O)CNC(=O)c2cccc([N+](=O)[O-])c2)c(=O)c2ccccc21 | 512 µg/mL (≈ 1200 µM) | 128 µg/mL (≈ 300 µM) | 64 µg/mL (≈ 150 µM) | 64 µg/mL (≈ 150 µM) | 16 µg/mL (≈ 37.5 µM) | 128 µg/mL (≈ 300 µM) | 16 µg/mL (≈ 37.5 µM) | 256 µg/mL (≈ 600 µM) | 4 µg/mL (≈ 9.38 µM) | 128 µg/mL (≈ 300 µM) | –
